# Source: ChEMBL document CHEMBL1121792, “Quantitative structure-activity relationships of colchicines against P388 leukemia in mice” (J Med Chem, 1981)
# System: P388
# Test: Compound was tested for antitumor activity against lymphocytic leukemia P388 cells in mice
# Format: functional, Mus musculus
# Details: not given
row,SMILES,Log 1/C
1,COc1cc2c(c(OC)c1OC)-c1ccc(OC)c(=O)cc1[C@@H](N(C)C)CC2,4.03

# System: not listed separately
# Test: physchem
# Details: octanol/water
# Description: Partition coefficient (logP)
row,logP,SMILES
1,3.21,COc1cc2c(c(OC)c1OC)-c1ccc(SCc3ccccc3)c(=O)cc1[C@@H](NC(C)=O)CC2
2,3.53,COc1cc2c(c(OC)c1OC)-c1ccc(SC)c(=O)cc1[C@@H](NC(=O)NCCCl)CC2
3,0.97,COc1cc2c(c(OC)c1OC)-c1ccc(S(=O)(=O)Cc3ccccc3)c(=O)cc1[C@@H](NC(C)=O)CC2
4,0.93,COc1ccc2c(c1OC)-c1ccc(OC)c(=O)cc1[C@@H](NC(C)=O)CC2
5,-0.58,COc1cc2c(c(OC)c1OC)-c1ccc(S(C)(=O)=O)c(=O)cc1[C@@H](NC(C)=O)CC2
6,2.14,COc1cc2c(c(OC)c1OC)-c1cc/c(=N\Cc3ccccc3)c(O)cc1[C@@H](NC(C)=O)CC2
7,1.5,COc1cc2c(c(OC)c1OC)-c1ccc(SC)c(=O)cc1[C@@H](NC(=O)CO)CC2
8,2.34,COc1cc2c(c(OC)c1OC)-c1ccc(SC)c(=O)cc1[C@@H](NC(=O)CCl)CC2
9,2.96,COc1cc2c(c(OC)c1OC)-c1ccc(OC)c(=O)cc1[C@@H](NC(=O)c1ccc([N+](=O)[O-])cc1)CC2
10,2.36,COc1cc2c(c(OC)c1OC)-c1ccc(OC)c(=O)cc1[C@@H](NC(=O)C(F)(F)F)CC2
11,-2.1,COC(=O)C(N)CCCC/N=c1\ccc2c(cc1O)[C@@H](NC(C)=O)CCc1cc(OC)c(OC)c(OC)c1-2 (stereo not given in full)
12,-0.53,COc1cc2c(c(OC)c1OC)-c1ccc([S+](C)[O-])c(=O)cc1[C@@H](NC(C)=O)CC2 (stereo not given in full)
13,2.07,COc1cc2c(c(OC)c1OC)-c1ccc(OC)c(=O)cc1[C@@H](N(C)C)CC2
14,1.71,COc1cc2c(c(OC)c1OC)-c1ccc(OC)c(=O)cc1[C@@H](NC(=O)CCl)CC2

# Further lines, the molecule ahead of its results:
row,SMILES,logP
1,COc1cc2c(c(OC)c1OC)-c1ccc(SC)c(=O)cc1[C@@H](NC(=O)C(F)(F)F)CC2,2.99
2,COc1cc2c(c(OC)c1OC)-c1ccc(SC)c(=O)cc1[C@@H](NC1COC(O)C(O)C1O)CC2 (stereo not given in full),1.4
3,COc1cc2c(c(OC)c1OC)-c1ccc(OC)c(=O)cc1[C@@H](NC(=O)CF)CC2,1.19
4,COc1cc2c(c(OC)c1OC)-c1ccc(OC)c(=O)cc1[C@@H](N)CC2 [DEACETYLCOLCHICINE],1.1
5,COc1cc2c(c(OC)c1OC)-c1ccc(OC)c(=O)cc1[C@@H](NC(=O)c1ccccc1)CC2,2.94
6,CCOC(=O)N[C@H]1CCc2cc(OC)c(OC)c(OC)c2-c2ccc(SC)c(=O)cc21,3.12
7,CN[C@H]1CCc2cc(OC)c(OC)c(OC)c2-c2ccc(OC)c(=O)cc21 [DEMECOLCINE],1.53
8,COc1cc2c(c(OC)c1OC)-c1ccc(OC)c(=O)cc1[C@@H](NC(C)=O)CC2 [COLCHICINE],1.03
9,COc1cc2c(c(OC)c1OC)-c1ccc(SC)c(=O)cc1[C@@H](NC1C(CO)OC(O)C(O)C1O)CC2 (stereo not given in full),1.25
10,COc1cc2c(c(OC)c1OC)-c1ccc(SC)c(=O)cc1[C@@H](NC(C)=O)CC2 [THIOCOLCHICINE],1.66
11,COc1cc2c(c(OC)c1OC)-c1ccc(SC)c(=O)cc1[C@@H](N)CC2,1.73
12,CNc1ccc2c(cc1=O)[C@@H](NC(C)=O)CCc1cc(OC)c(OC)c(OC)c1-2,0.58
13,COc1cc2c(c(OC)c1OC)-c1ccc(SC)c(=O)cc1[C@@H](NO[C@H]1[C@H](OC(C)=O)[C@@H](OC(C)=O)[C@H](OC(C)=O)O[C@@H]1COC(C)=O)CC2,4.61
14,COc1cc2c(c(OC)c1OC)-c1ccc(OC)c(=O)cc1[C@@H](NC=O)CC2,1.02
15,CN[C@H]1CCc2cc(OC)c(OC)c(OC)c2-c2ccc(SC)c(=O)cc21,2.22
